Read-outs that look alike come from different tables or passages of the source.
Key:
[1] = Solubility of each salt of T-3811 in distilled water; format: physicochemical; conditions: for pH: pH given beside the solubility of each salt in distilled water; for solubility at 3 h: thermodynamic from solid; for solubility at a physiologically acceptable pH: compared with the other salts of T-3811, in words
Procedure: This sample solution is exposed to ultrasonic wave irradiation 5 (SOLID STATE 1,200, Cho-onpa Kogyo) in cold water for 3 hours and then filtered through a filter with a pore size of 0.45-μm (MILLEX-HV13, MILLIPORE).

[2] = Solubility of T-3811 in the vicinity of neutral; format: physicochemical; conditions: in words
[3] = tested on: Gram-positive and Gram-negative bacteria; conditions: background statement, in words; cited from earlier work
[4] = Stability against humidity; format: physicochemical; conditions: in words
[5] = about 50 mg salt in 2 ml distilled water, ultrasonic wave irradiation in cold water 3 hours, 0.45-μm filtrate, T-3811 content by liquid chromatography, read-out: Solubility

Structure (SMILES) | pH [1] | solubility at 3 h [1, 5] [µg/mL] | other results
C[C@H]1NCc2cc(-c3ccc4c(=O)c(C(=O)[O-])cn(C5CC5)c4c3OC(F)F)ccc21.[Na+] [Sodium salt, sodium (R)-1-cyclopropyl-8-difluoromethoxy-7-(1-methyl-2,3-dihydro-1H-5-isoindolyl)-4-oxo-1,4-dihydro-3-quinolinecarboxylate] | 10.11 | 2340 | 
C[C@H]1NCc2cc(-c3ccc4c(=O)c(C(=O)O)cn(C5CC5)c4c3OC(F)F)ccc21.Cl [Hydrochloride, (R)-1-cyclopropyl-8-difluoromethoxy-7-(1-methyl-2,3-dihydro-1H-5-isoindolyl)-4-oxo-1,4-dihydro-3-quinolinecarboxylic acid hydrochloride] | 3.99 |  | solubility at 3 h ([1]; water): 5450 µg/mL
CS(=O)(=O)O.C[C@H]1NCc2cc(-c3ccc4c(=O)c(C(=O)O)cn(C5CC5)c4c3OC(F)F)ccc21 [Methanesulfonate, (R)-1-cyclopropyl-8-difluoromethoxy-7-(1-methyl-2,3-dihydro-1H-5-isoindolyl)-4-oxo-1,4-dihydro-3-quinolinecarboxylic acid methanesulfonate] | 3.66 | 16500 | solubility at a physiologically acceptable pH ([1]; listed as methanesulfonate of T-3811, methanesulfonate): much higher; solubility at a physiologically acceptable pH ([1]; listed as t-3811 methanesulfonate, methanesulfonate): remarkably high
C[C@H]1NCc2cc(-c3ccc4c(=O)c(C(=O)O)cn(C5CC5)c4c3OC(F)F)ccc21 [Example T-3811, (R)-1-cyclopropyl-8-difluoromethoxy-7-(1-methyl-2,3-dihydro-1H-5-isoindolyl)-4-oxo-1,4-dihydro-3-quinoline-carboxylic acid] |  |  | solubility in the vicinity of neutral [2]: low; activity against Gram-positive and Gram-negative bacteria [3]: excellent
C[C@H](O)C(=O)O.C[C@H]1NCc2cc(-c3ccc4c(=O)c(C(=O)O)cn(C5CC5)c4c3OC(F)F)ccc21 [L-lactate, (R)-1-cyclopropyl-8-difluoromethoxy-7-(1-methyl-2,3-dihydro-1H-5-isoindolyl)-4-oxo-1,4-dihydro-3-quinolinecarboxylic acid L-lactate] | 4.40 | 1980 | 
CC(=O)O.C[C@H]1NCc2cc(-c3ccc4c(=O)c(C(=O)O)cn(C5CC5)c4c3OC(F)F)ccc21 [Acetate, (R)-1-cyclopropyl-8-difluoromethoxy-7-(1-methyl-2,3-dihydro-1H-5-isoindolyl)-4-oxo-1,4-dihydro-3-quinolinecarboxylic acid acetate] | 4.22 |  | solubility at 3 h ([1]; water): 6230 µg/mL
C[C@H]1NCc2cc(-c3ccc4c(=O)c(C(=O)O)cn(C5CC5)c4c3OC(F)F)ccc21.O=C(O)CC(O)(CC(=O)O)C(=O)O [Citrate, (R)-1-cyclopropyl-8-difluoromethoxy-7-(1-methyl-2,3-dihydro-1H-5-isoindolyl)-4-oxo-1,4-dihydro-3-quinolinecarboxylic acid citrate] | 3.90 | 420 | 
CS(=O)(=O)O.C[C@H]1NCc2cc(-c3ccc4c(=O)c(C(=O)O)cn(C5CC5)c4c3OC(F)F)ccc21.O [T-3811 methanesulfonate hydrate, (R)-1-cyclopropyl-8-difluoromethoxy-7-(1-methyl-2,3-dihydro-1H-5-isoindolyl)-4-oxo-1,4-dihydro-3-quinolinecarboxylic acid methanesulfonate monohydrate] |  |  | stability against humidity [4]: good
C[C@H]1NCc2cc(-c3ccc4c(=O)c(C(=O)[O-])cn(C5CC5)c4c3OC(F)F)ccc21.C[C@H]1NCc2cc(-c3ccc4c(=O)c(C(=O)[O-])cn(C5CC5)c4c3OC(F)F)ccc21.[Mg+2] [Magnesium salt, magnesium salt of (R)-1-cyclopropyl-8-difluoromethoxy-7-(1-methyl-2,3-dihydro-1H-5-isoindolyl)-4-oxo-1,4-dihydro-3-quinolinecarboxylic acid] | 7.58 |  | Solubility ([1]; about 50 mg salt in 2 ml distilled water, ultrasonic wave irradiation in cold water 3 hours, 0.45-μm filtrate, T-3811 content by liquid chromatography): 60 µg/mL
C[C@H]1NCc2cc(-c3ccc4c(=O)c(C(=O)O)cn(C5CC5)c4c3OC(F)F)ccc21.O=P(O)(O)O [Phosphate, (R)-1-cyclopropyl-8-difluoromethoxy-7-(1-methyl-2,3-dihydro-1H-5-isoindolyl)-4-oxo-1,4-dihydro-3-quinoline-carboxylic acid phosphate] | 3.29 | 8520 | 
C[C@H]1NCc2cc(-c3ccc4c(=O)c(C(=O)O)cn(C5CC5)c4c3OC(F)F)ccc21.O=S(=O)(O)O [Sulfate, (R)-1-cyclopropyl-8-difluoromethoxy-7-(1-methyl-2,3-dihydro-1H-5-isoindolyl)-4-oxo-1,4-dihydro-3-quinolinecarboxylic acid sulfate] | 3.46 | 1170 | 

From patent US6337399B1, “Processes for producing 7-isoindolinequinolonecarboxylic derivatives and intermediates therefor, salts of 7-isoindolinequinolonecarboxylic acids, hydrates thereof, and composition containing the same as active ingredient” (priority 1997, dated 2002)
